# Reference: patent publication US20060069132A1, “Azolecarboxamide herbicides” (priority 2004, published 2006)
# Experiments:
# [1] = tested on: small flower umbrella sedge; assay: Test B flooded paddy test; assay type: in vivo, Cyperus difformis; conditions: 1000 g ai/ha, scale 0 to 100 (0 no effect, 100 complete control)
# How it was run: (§1)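 Paddy species grown to the 2-leaf stage under flooding; blackgrass sprayed postemergence at 2–18 cm (1- to 4-leaf stage). Plants kept in a greenhouse for 13 to 15 days, then visually rated against controls on 0 (no effect) to 100 (complete control).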
# [2] = tested on: wheat; assay: Test B postemergence herbicide test; assay type: in vivo, Triticum aestivum; design: key to Wheat plant response rating: 0 = no effect, 100 = complete control
# How it was run: (§2)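 Scale 0–100: zero equals no visible effect, 100 complete control, judged by eye relative to controls. Timing: 13 to 15 days in greenhouse post-treatment. Growth stage at spraying: two leaves (paddy) or one to four leaves, 2–18 cm (postemergence).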
# [3] = tested on: wild oat; assay: Test B postemergence herbicide test; assay type: in vivo, Avena fatua; conditions: scale 0 (no effect) to 100 (complete control)
# How it was run: as §2
# [4] = tested on: velvetleaf; assay: Test B pre-/postemergence herbicide test; assay type: in vivo, Abutilon theophrasti; conditions: for Plant response rating (0 to 100 scale), Velvetleaf: 0 is no effect, 100 is complete control, preemergence; for Velvetleaf plant response rating: scale 0 (no effect) to 100 (complete control)
# How it was run: (§3)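 Flooded paddy rice and barnyardgrass were treated at the 2-leaf stage; upland plantings received compound either on sown seed or on 1- to 4-leaf seedlings. All were kept 13–15 days in a greenhouse and scored visually, 0–100, relative to untreated plants.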
# [5] = tested on: rice; assay: Test B flooded paddy test; assay type: in vivo, Oryza sativa; conditions: 1000 g ai/ha, scale 0 to 100 (0 no effect, 100 complete control)
# How it was run: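 After treating 2-leaf paddy plants or 2–18 cm postemergence plants (1 to 4 leaves) with formulated chemical, researchers kept them in a greenhouse for 13–15 days. Effects were judged visually versus controls: 0 indicates none, 100 total control.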
# [6] = tested on: ducksalad; assay: Test B flooded paddy test; assay type: in vivo, Heteranthera limosa; conditions: 1000 g ai/ha, scale 0 to 100 (0 no effect, 100 complete control)
# How it was run: as §1
# [7] = tested on: large crabgrass; assay: Test B pre-/postemergence herbicide test; assay type: in vivo, Digitaria sanguinalis; conditions: for Plant response rating (0 to 100 scale), Crabgrass, Large: 0 is no effect, 100 is complete control, preemergence; for Crabgrass, Large plant response rating: scale 0 (no effect) to 100 (complete control)
# How it was run: as §3
# [8] = tested on: cocklebur; assay: Test B pre-/postemergence herbicide test; assay type: in vivo, Xanthium strumarium; conditions: for Plant response rating (0 to 100 scale), Cocklebur: 0 is no effect, 100 is complete control, preemergence; for Cocklebur plant response rating: scale 0 (no effect) to 100 (complete control)
# How it was run: (§4)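 Test chemicals in a non-phytotoxic solvent mixture with surfactant were applied preemergence to seeded species and postemergence to plants 2-18 cm tall (1- to 4-leaf stage); rice and barnyardgrass were also tested in a flooded paddy at the 2-leaf stage. Visual rating versus controls after 13-15 days in greenhouse, scale 0 (no effect) to 100 (complete control).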
# [9] = tested on: morningglory; assay: Test B pre-/postemergence herbicide test; assay type: in vivo, Ipomoea coccinea; conditions: for Plant response rating (0 to 100 scale), Morningglory: 0 is no effect, 100 is complete control, preemergence; for Morningglory plant response rating: scale 0 (no effect) to 100 (complete control)
# How it was run: as §4
# [10] = tested on: barnyardgrass; assay: Test B flooded paddy test; assay type: in vivo, Echinochloa crus-galli; conditions: 1000 g ai/ha, scale 0 to 100 (0 no effect, 100 complete control)
# How it was run: as §1
# [11] = tested on: barnyardgrass; assay: Test B pre-/postemergence herbicide test; assay type: in vivo, Echinochloa crus-galli; conditions: for Plant response rating (0 to 100 scale), Barnyardgrass: 0 is no effect, 100 is complete control, preemergence; for Barnyardgrass plant response rating: scale 0 (no effect) to 100 (complete control)
# How it was run: as §4
# [12] = tested on: lambsquarters; assay: Test B pre-/postemergence herbicide test; assay type: in vivo, Chenopodium album; conditions: for Plant response rating (0 to 100 scale), Lambsquarters: 0 is no effect, 100 is complete control, preemergence; for Lambsquarters plant response rating: scale 0 (no effect) to 100 (complete control)
# How it was run: as §3
# [13] = tested on: blackgrass; assay: Test B postemergence herbicide test; assay type: in vivo, Alopecurus myosuroides; conditions: scale 0 (no effect) to 100 (complete control)
# How it was run: as §1
# [14] = tested on: giant foxtail; assay: Test B pre-/postemergence herbicide test; assay type: in vivo, Setaria faberi; conditions: for Plant response rating (0 to 100 scale), Foxtail, Giant: 0 is no effect, 100 is complete control, preemergence; for Foxtail, Giant plant response rating: scale 0 (no effect) to 100 (complete control)
# How it was run: as §3
# [15] = tested on: pigweed; assay: Test B pre-/postemergence herbicide test; assay type: in vivo, Amaranthus retroflexus; conditions: for Plant response rating (0 to 100 scale), Pigweed: 0 is no effect, 100 is complete control, preemergence; for Pigweed plant response rating: scale 0 (no effect) to 100 (complete control)
# How it was run: as §3
# [16] = tested on: Surinam grass; assay: Test B pre-/postemergence herbicide test; assay type: in vivo, Urochloa decumbens; conditions: for Plant response rating (0 to 100 scale), Surinam Grass: 0 is no effect, 100 is complete control, preemergence; for Surinam Grass plant response rating: scale 0 (no effect) to 100 (complete control)
# How it was run: as §3
# [17] = tested on: corn; assay: Test B pre-/postemergence herbicide test; assay type: in vivo, Zea mays; conditions: for Plant response rating (0 to 100 scale), Corn: 0 is no effect, 100 is complete control, preemergence; for Corn plant response rating: scale 0 (no effect) to 100 (complete control)
# How it was run: as §3
# [18] = 125 g ai/ha, visual rating, scale 0 (no effect) to 100 (complete control), postemergence
# [19] = 500 g ai/ha, scale 0 to 100, 0 no effect, 100 complete control, preemergence
# [20] = Postemergence, 500 g ai/ha, scale 0 (no effect) to 100 (complete control)
# [21] = 125 g ai/ha, visual rating, postemergence
smiles,measurement,setting,value
CCNC(=O)c1ccc(F)c(NC(=O)c2nn(C(C)C)nc2C)c1 [Compound 401],"Sedge, Umbrella plant response rating",[1],0
same,Wheat plant response rating,[2]; [18],0
same,Wheat plant response rating,[2]; [19],0
same,Wheat plant response rating,[2]; [20],0
same,"Oat, Wild plant response rating",[3]; [21],0
same,"Oat, Wild plant response rating","[3]; Postemergence, 500 g ai/ha",0
same,"Plant response rating (0 to 100 scale), Velvetleaf",[4]; 125 g ai/ha,0
same,Velvetleaf plant response rating,[4]; [21],0
same,Velvetleaf plant response rating,"[4]; Postemergence, 500 g ai/ha",0
same,Rice plant response rating,[5],20
same,Ducksalad plant response rating,[6],0
same,"Plant response rating (0 to 100 scale), Crabgrass, Large",[7]; 125 g ai/ha,0
same,"Crabgrass, Large plant response rating",[7]; [21],0
same,"Crabgrass, Large plant response rating","[7]; Postemergence, 500 g ai/ha",0
same,"Plant response rating (0 to 100 scale), Cocklebur",[8]; 125 g ai/ha,0
same,Cocklebur plant response rating,[8]; [21],0
same,Cocklebur plant response rating,"[8]; Postemergence, 500 g ai/ha",0
same,"Plant response rating (0 to 100 scale), Morningglory",[9]; 125 g ai/ha,0
same,Morningglory plant response rating,[9]; [21],0
same,Morningglory plant response rating,"[9]; Postemergence, 500 g ai/ha",0
same,Barnyardgrass plant response rating,[10],0
same,"Plant response rating (0 to 100 scale), Barnyardgrass",[11]; 125 g ai/ha,0
same,Barnyardgrass plant response rating,[11]; [21],0
same,Barnyardgrass plant response rating,"[11]; Postemergence, 500 g ai/ha",0
same,"Plant response rating (0 to 100 scale), Lambsquarters",[12]; 125 g ai/ha,0
same,Lambsquarters plant response rating,[12]; [21],0
same,Lambsquarters plant response rating,"[12]; Postemergence, 500 g ai/ha",0
same,Blackgrass plant response rating,[13]; [21],0
same,Blackgrass plant response rating,"[13]; Postemergence, 500 g ai/ha",0
same,"Plant response rating (0 to 100 scale), Foxtail, Giant",[14]; 125 g ai/ha,0
same,"Foxtail, Giant plant response rating",[14]; [21],0
same,"Foxtail, Giant plant response rating","[14]; Postemergence, 500 g ai/ha",0
same,"Plant response rating (0 to 100 scale), Pigweed",[15]; 125 g ai/ha,0
same,Pigweed plant response rating,[15]; [21],0
same,Pigweed plant response rating,"[15]; Postemergence, 500 g ai/ha",0
same,"Plant response rating (0 to 100 scale), Surinam Grass",[16]; 125 g ai/ha,0
same,Surinam Grass plant response rating,[16]; [21],0
same,Surinam Grass plant response rating,"[16]; Postemergence, 500 g ai/ha",0
same,"Plant response rating (0 to 100 scale), Corn",[17]; 125 g ai/ha,0
same,Corn plant response rating,[17]; [21],0
same,Corn plant response rating,"[17]; Postemergence, 500 g ai/ha",0
Cc1nn(C(C)C)nc1C(=O)Nc1cc(C(=O)N2CC=CC2)ccc1F [Compound 402],"Sedge, Umbrella plant response rating",[1],70
same,Wheat plant response rating,[2]; [18],0
same,Wheat plant response rating,[2]; [19],10
same,Wheat plant response rating,[2]; [20],0
same,"Oat, Wild plant response rating",[3]; [21],0
same,"Oat, Wild plant response rating","[3]; Postemergence, 500 g ai/ha",0
same,"Plant response rating (0 to 100 scale), Velvetleaf",[4]; 125 g ai/ha,0
same,Velvetleaf plant response rating,[4]; [21],20
same,Velvetleaf plant response rating,"[4]; Postemergence, 500 g ai/ha",30
same,Rice plant response rating,[5],10
same,Ducksalad plant response rating,[6],20
same,"Plant response rating (0 to 100 scale), Crabgrass, Large",[7]; 125 g ai/ha,0
same,"Crabgrass, Large plant response rating",[7]; [21],0
same,"Crabgrass, Large plant response rating","[7]; Postemergence, 500 g ai/ha",10
same,"Plant response rating (0 to 100 scale), Cocklebur",[8]; 125 g ai/ha,0
same,Cocklebur plant response rating,[8]; [21],0
same,Cocklebur plant response rating,"[8]; Postemergence, 500 g ai/ha",0
same,"Plant response rating (0 to 100 scale), Morningglory",[9]; 125 g ai/ha,0
same,Morningglory plant response rating,[9]; [21],0
same,Morningglory plant response rating,"[9]; Postemergence, 500 g ai/ha",0
same,Barnyardgrass plant response rating,[10],10
same,"Plant response rating (0 to 100 scale), Barnyardgrass",[11]; 125 g ai/ha,0
same,Barnyardgrass plant response rating,[11]; [21],0
same,Barnyardgrass plant response rating,"[11]; Postemergence, 500 g ai/ha",0
same,"Plant response rating (0 to 100 scale), Lambsquarters",[12]; 125 g ai/ha,0
same,Lambsquarters plant response rating,[12]; [21],30
same,Lambsquarters plant response rating,"[12]; Postemergence, 500 g ai/ha",40
same,Blackgrass plant response rating,[13]; [21],0
same,Blackgrass plant response rating,"[13]; Postemergence, 500 g ai/ha",0
same,"Plant response rating (0 to 100 scale), Foxtail, Giant",[14]; 125 g ai/ha,0
same,"Foxtail, Giant plant response rating",[14]; [21],0
same,"Foxtail, Giant plant response rating","[14]; Postemergence, 500 g ai/ha",20
same,"Plant response rating (0 to 100 scale), Pigweed",[15]; 125 g ai/ha,0
same,Pigweed plant response rating,[15]; [21],0
same,Pigweed plant response rating,"[15]; Postemergence, 500 g ai/ha",10
same,"Plant response rating (0 to 100 scale), Surinam Grass",[16]; 125 g ai/ha,0
same,Surinam Grass plant response rating,[16]; [21],0
same,Surinam Grass plant response rating,"[16]; Postemergence, 500 g ai/ha",20
same,"Plant response rating (0 to 100 scale), Corn",[17]; 125 g ai/ha,0
same,Corn plant response rating,[17]; [21],0
same,Corn plant response rating,"[17]; Postemergence, 500 g ai/ha",0
